Measured values from patent US4563446A, “Thromboxane synthetase inhibiting 3-(1-alkenyl) pyridines” (Takeda Chemical Industries, Ltd., priority 1983, dated 1986).

test system: TXA2 synthetase; assay: Inhibitory effect on blood thromboxane A2 (TXA2) production in rats; type: in vivo, Male Sprague-Dawley rats; conditions: 10 mg/kg oral, 2 hours after administration; serum TXB2 by radioimmunoassay, versus control
Method: Male Sprague-Dawley rats aged 7 to 8 weeks were used in groups of 5 individuals. Rats in the dosing group received by oral administration of 2 ml/kg of an aqueous suspension of 10 mg/kg of the test compound prepared with a small amount of gum arabic. To rats in the control group, a suspension of gum arabic only was similarly administered. Two hours after administration, each rat was anesthetized with pentobarbital sodium (50 mg/kg, intraperitoneal) and 1 ml of blood was taken from the abdominal aorta. The blood was allowed to stand at 25° C. for 90 minutes, after which it was centrifuged at 15,000 rpm for 2 minutes to separate the serum. The serum thromboxane B2 (TXB2) which was a stable metabolite of TXA2 produced in the blood during the standing procedure was determined by radioimmunoassay (Shibouta et al., Biochemical Pharmacol. 28, 3601, 1979). The percent inhibition of TXA2 synthetase was calculated from the difference in TXB2 production between the control and dosing groups.

SMILES	% inhibition of TXA2 synthetase
Cc1ccc(S(=O)(=O)NC(=O)OCCCCC/C=C(\c2ccccc2)c2cccnc2)cc1 [Id-29, 1-(p-toluenesulfonyl)aminocarbonyloxy-(E)-7-phenyl-7-(3-pyridyl)-6-heptene]	94%
O=C(Nc1ccccc1)OCCCCC/C=C(\c1ccccc1)c1ccc[n+]([O-])c1 [Ie-8]	80%
O=C(O)CCCCCCCCC/C=C(\c1ccccc1)c1ccc[n+]([O-])c1 [Ie-4]	85%
O=[N+]([O-])OCCCCC/C=C(\c1ccccc1)c1cccnc1 [Id-32, 1-nitroxy-(E)-7-phenyl-7-(3-pyridyl)-6-heptene]	94%
CCCCC/C=C(\c1ccccc1)c1ccc[n+]([O-])c1 [Ie-9]	68%
O=C(O)CCCC/C=C(/c1ccc[n+]([O-])c1)c1cccs1 [Ie-5]	90%
OCCCCC/C=C(/c1ccccc1)c1cccnc1 [Id-15]	87%
OCCCCC/C=C(\c1cccnc1)c1cccs1 [Id-17, (E)-7-(3-pyridyl)-7-(2-thienyl)-6-hepten-1-ol]	95%
CNC(=O)OCCCCC/C=C(\c1ccccc1)c1cccnc1 [Id-24, 1-methylaminocarbonyloxy-(E)-7-phenyl-7-(3-pyridyl)-6-heptene]	90%
COCCCCC/C=C(\c1ccccc1)c1cccnc1 [Id-37, (E)-1-methoxy-7-phenyl-7-(3-pyridyl)-6-heptene]	92%
O=C(O)CCCC/C=C(/c1ccccc1)c1ccc[n+]([O-])c1 [Ie-3]	70%
COC(=O)CCCC/C=C(\c1ccccc1)c1ccc[n+]([O-])c1 [Ie-6]	80%
O=C(O)CCCC/C=C(\c1ccccc1)c1ccc[n+]([O-])c1 [Ie-2, (E)-7-phenyl-7-(1-oxide-3-pyridyl)-6-heptenoic acid]	85%
OCCCCC/C=C(\c1ccccc1)c1cccnc1 [Id-14, (E)-7-phenyl-7-(3-pyridyl)-6-hepten-1-ol]	92%
O=C(CCCC/C=C(\c1ccccc1)c1cccnc1)Nc1ccccc1 [Id-44, N-phenylamide of (E)-7-phenyl-7-(3-pyridyl)-6-heptenoic acid]	94%
O=C(Nc1ccccc1)OCCCCC/C=C(\c1ccccc1)c1cccnc1 [Id-27, 1-phenylaminocarbonyloxy-(E)-7-phenyl-7-(3-pyridyl)-6-heptene]	87%
CC(=O)OCCCCC/C=C(\c1ccccc1)c1cccnc1 [Id-19, 1-acetoxy-(E)-7-phenyl-7-(3-pyridyl)-6-heptene]	94%
[O-][n+]1cccc(/C(=C/CCCCCO)c2ccccc2)c1 [Ie-7, (E)-7-phenyl-7-(1-oxide-3-pyridyl)-6-hepten-1-ol]	80%
O=C(O)CCCCCCCCC/C=C(\c1ccccc1)c1cccnc1 [Id-9, (E)-12-phenyl-12-(3-pyridyl)-11-dodecenoic acid]	90%
O=COCCCCC/C=C(\c1ccccc1)c1cccnc1 [Id-20, 1-formyloxy-(E)-7-phenyl-7-(3-pyridyl)-6-heptene]	87%
CC(C)(C)[Si](C)(C)OCCCCC/C=C(\c1ccccc1)c1cccnc1 [Id-48, dimethyl-t-butylsilyl ether of (E)-7-phenyl-7-(3-pyridyl)-6-hepten-1-ol]	91%
CCCCC/C=C(\c1ccccc1)c1cccnc1 [Id-5, (E)-1-phenyl-1-(3-pyridyl)-1-heptene]	73%
OCCCCC/C=C(\c1cccnc1)c1cccs1 [Id-18]	72%
CCCCNC(=O)OCCCCC/C=C(\c1ccccc1)c1cccnc1 [Id-25, 1-(n-butyl)aminocarbonyloxy-(E)-7-phenyl-7-(3-pyridyl)-6-heptene]	83%
S=C(Nc1ccccc1)OCCCCC/C=C(\c1ccccc1)c1cccnc1 [Id-28, 1-phenylaminothiocarbonyloxy-(E)-7-phenyl-7-(3-pyridyl)-6-heptene]	79%
NC(=O)CCCC/C=C(\c1ccccc1)c1cccnc1 [Id-43, (E)-7-phenyl-7-(3-pyridyl)-6-heptenamide]	93%

test system: not listed separately; assay: Oral toxicity; type: in vivo; conditions: 1000 mg/kg/day, five rats, 14 days
Description: Moreover, the compounds of the invention are very low in toxicity in rats, dogs and so forth and characterized by broad margin between the toxic dose and the therapeutically effective dose. […] Furthermore, the compounds (I) of the invention produced long-lasting pharmacological effects in vivo, so that their TXA2 synthetase inhibiting activity is expected to be retained stably for a prolonged period of time. Accordingly, the compounds provided by the invention are used in low doses in mammals, including humans, for the prevention or treatment of thrombosis due to TXA2 -induced platelet aggregation, ischemic diseases due to vasospasm in heart, brain, periphery and circulatory system (e.g. myocardial infarction, stroke, renal infarction, pulmonary infarction, infarction at some other site, digestive tract ulcer) and diseases due to imbalance of the ratio of TXA2 /PGI2, with low incidence of adverse effects resulting from long-term continuous use thereof. They are administered orally in the form of tablets, capsules, powders or granules, for instance, or parenterally in the form of injections or pellets. Generally, they are used in a daily oral dose of 20-200 mg per adult human or a daily parenteral dose of 10-100 mg per adult human, respectively in 1-3 divided doses.

SMILES	Deaths
OCCCCC/C=C(\c1ccccc1)c1cccnc1 [Id-14, (E)-7-phenyl-7-(3-pyridyl)-6-hepten-1-ol]	no rat was dead for 14 days
